Laboratory results: US20260216349A1, “STABILIZED BIOPOLYMER COMPOSITION, THEIR MANUFACTURE AND USE” (BASE SE, priority 2023, published 2026)

Conditions: pH 7.4
Experimental: A 10% (m/m) aqueous solution of the test substances (butronics as well as reference materials Kolliphor EL and HS15) is prepared in phosphate buffer pH 7.4. For each test substance and reference three 5 ml brown glass ampoules with screw caps are filled with 5 g of the prepared aqueous solution.
The respective API (as for example Fenofibrate/Itraconazole/Nilotinib) to be analyzed is then added (about 30 mg-500 mg per 5 g of 10% test substance solution, enough that the added powder doesn't dissolve anymore) in order to obtain a supersaturated solution.
After stirring for 72 h at room temperature, each sample is filtered through a 0.22 μm PVDF filter and the concentration of the respective API in the filtrate is quantified by HPLC.
The average of the 3 replicates per API is calculated and the obtained concentrations are put in relation to Kolliphor EL, which is set to 100%.

Solubilization of small molecules (mean value in %): 96%
Substance: POE sorbitan monooleate [Polysorbate 80]
